# Key:
# [1] = biological target: T1, Recombinant human inducible nitric oxide synthase (hiNOS) (Homo sapiens, UniProt P35228); assay: Citrulline Assay for Nitric Oxide Synthase (hiNOS); format: biochemical; settings: for IC50: conversion of [3H]-arginine to [3H]-citrulline, 30 µM L-arginine, 37°C, 15 minutes
# T1 construct: made in house; host or cells: Sf9 insect cells (recombinant baculovirus)
# Method: (§1) Nitric oxide synthase activity was measured by monitoring the conversion of [^3H]-arginine to [^3H]-citrulline. Mouse inducible nitric oxide synthase (miNOS) was prepared from an extract of LPS-treated RAW 264.7 cells and partially purified by DEAE-Sepharose chromatography. Rat brain constitutive nitric oxide synthase (rnNOS) was prepared from an extract of rat cerebellum and partially purified by DEAE-Sepharose chromatography. Enzyme and inhibitors were incubated at 37°C for 15 minutes in a reaction volume of 100 µL with the following components added to start the reaction: 50 mM Tris (pH 7.6), 1 mg/ml bovine serum albumin, 1 mM DTT, 2 mM CaCl2, 10 µM FAD, 10 µM tetrahydrobiopterin, 30 µM L-arginine containing L-[2,3-^3H]-arginine at 300 cpm/pmole and 1 mM NADPH. For constitutive NOS, 50 nM calmodulin was also added. The reaction was terminated by addition of cold stop buffer containing 10 mM EGTA, 100 mM HEPES, pH 5.5 and 1 mM citrulline. [^3H]-Citrulline was separated by chromatography on Dowex 50W X-8 cation exchange resin and radioactivity determined with a liquid scintillation counter.
# Recombinant human inducible nitric oxide synthase (hiNOS) was extracted from Sf9 insect cells (infected with recombinant baculoviruses encoding a cDNA for human inducible nitric oxide synthase which has been isolated and purified from a lambda Zapll cDNA library made from RNA isolated from a colon sample from a patient with ulcerative colitis) and partially purified by DEAE-chromatography.
# [2] = system: RAW 264.7 cells; assay: Raw Cell Nitrite Assay; format: cell-based; settings: Mus musculus, RAW264.7; for IC50: nitrite production by intracellular iNOs, LPS-induced RAW 264.7 cells, L-arginine 30 µM
# Method: RAW 264.7 cells are plated to confluency on a 96-well tissue culture plate grown overnight (17h) in the presence of LPS to induce NOS. A row of 3-6 wells were left untreated and served as controls for subtraction of nonspecific background. The media was removed from each well and the cells are washed twice with Krebs-Ringers-Hepes (25mM, pH 7.4) with 2 mg/ml glucose. The cells are then placed on ice and incubated with 50 µL of buffer containing L-arginine (30 µM) +/- inhibitors for lh. The assay is initiated by warming the plate to 37°C in a water bath for lh. Production of nitrite by intracellular iNOs is linear with time. To terminate the cellular assay, the plate of cells is placed on ice and the nitrite-containing buffer removed and analyzed for nitrite using a previously published fluorescent determination for nitrite. All values are the average of triplicate wells and are compared to a background-subtracted induced set of cells (100% value).
# [3] = biological target: T2, Mouse inducible nitric oxide synthase (miNOS) (Mus musculus, UniProt P29477); assay: Citrulline Assay for Nitric Oxide Synthase (miNOS); format: biochemical; settings: for IC50: conversion of [3H]-arginine to [3H]-citrulline, 30 µM L-arginine, 37°C, 15 minutes
# T2 construct: prepared from an extract of LPS-treated RAW 264.7 cells and partially purified by DEAE-Sepharose chromatography; endogenous in cells; host or cells: LPS-treated RAW 264.7 cells
# Method: as §1
# [4] = biological target: T3, Rat brain constitutive nitric oxide synthase (rnNOS) (Rattus norvegicus, UniProt P29476); assay: Citrulline Assay for Nitric Oxide Synthase (rnNOS); format: biochemical; settings: for IC50: conversion of [3H]-arginine to [3H]-citrulline, 30 µM L-arginine, 50 nM calmodulin added
# T3 construct: prepared from an extract of rat cerebellum and partially purified by DEAE-Sepharose chromatography; from tissue; host or cells: rat cerebellum
# Method: as §1
# T2 sequence (P29477 whole entry): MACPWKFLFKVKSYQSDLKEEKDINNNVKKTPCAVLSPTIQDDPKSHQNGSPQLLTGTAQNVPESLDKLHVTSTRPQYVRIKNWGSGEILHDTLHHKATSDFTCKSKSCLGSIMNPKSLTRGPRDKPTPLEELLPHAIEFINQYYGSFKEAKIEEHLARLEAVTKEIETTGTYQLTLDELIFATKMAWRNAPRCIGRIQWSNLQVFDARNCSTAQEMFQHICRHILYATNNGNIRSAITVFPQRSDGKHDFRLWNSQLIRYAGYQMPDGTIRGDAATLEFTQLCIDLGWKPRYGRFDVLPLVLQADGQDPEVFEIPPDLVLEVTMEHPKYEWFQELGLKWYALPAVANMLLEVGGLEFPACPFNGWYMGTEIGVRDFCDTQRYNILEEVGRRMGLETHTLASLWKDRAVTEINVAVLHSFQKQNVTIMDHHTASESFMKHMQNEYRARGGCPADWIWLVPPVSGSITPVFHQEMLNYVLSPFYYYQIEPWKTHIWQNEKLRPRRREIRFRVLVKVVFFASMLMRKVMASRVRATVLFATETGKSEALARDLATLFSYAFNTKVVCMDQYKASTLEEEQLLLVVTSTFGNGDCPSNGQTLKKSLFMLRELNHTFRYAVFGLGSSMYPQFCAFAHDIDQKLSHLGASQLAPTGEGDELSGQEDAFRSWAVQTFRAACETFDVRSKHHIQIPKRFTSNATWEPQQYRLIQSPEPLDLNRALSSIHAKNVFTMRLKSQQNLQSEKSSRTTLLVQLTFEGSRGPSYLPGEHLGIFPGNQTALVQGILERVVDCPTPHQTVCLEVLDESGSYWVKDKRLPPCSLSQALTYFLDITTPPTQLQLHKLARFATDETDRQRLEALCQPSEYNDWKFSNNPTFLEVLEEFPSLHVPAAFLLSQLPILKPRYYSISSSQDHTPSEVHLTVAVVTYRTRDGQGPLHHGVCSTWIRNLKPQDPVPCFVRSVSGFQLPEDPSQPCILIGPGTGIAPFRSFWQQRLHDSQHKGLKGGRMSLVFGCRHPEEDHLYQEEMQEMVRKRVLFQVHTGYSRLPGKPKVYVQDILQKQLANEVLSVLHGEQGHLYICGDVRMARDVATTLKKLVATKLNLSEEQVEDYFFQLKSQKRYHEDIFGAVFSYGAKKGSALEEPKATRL
# T3 sequence (P29476 whole entry): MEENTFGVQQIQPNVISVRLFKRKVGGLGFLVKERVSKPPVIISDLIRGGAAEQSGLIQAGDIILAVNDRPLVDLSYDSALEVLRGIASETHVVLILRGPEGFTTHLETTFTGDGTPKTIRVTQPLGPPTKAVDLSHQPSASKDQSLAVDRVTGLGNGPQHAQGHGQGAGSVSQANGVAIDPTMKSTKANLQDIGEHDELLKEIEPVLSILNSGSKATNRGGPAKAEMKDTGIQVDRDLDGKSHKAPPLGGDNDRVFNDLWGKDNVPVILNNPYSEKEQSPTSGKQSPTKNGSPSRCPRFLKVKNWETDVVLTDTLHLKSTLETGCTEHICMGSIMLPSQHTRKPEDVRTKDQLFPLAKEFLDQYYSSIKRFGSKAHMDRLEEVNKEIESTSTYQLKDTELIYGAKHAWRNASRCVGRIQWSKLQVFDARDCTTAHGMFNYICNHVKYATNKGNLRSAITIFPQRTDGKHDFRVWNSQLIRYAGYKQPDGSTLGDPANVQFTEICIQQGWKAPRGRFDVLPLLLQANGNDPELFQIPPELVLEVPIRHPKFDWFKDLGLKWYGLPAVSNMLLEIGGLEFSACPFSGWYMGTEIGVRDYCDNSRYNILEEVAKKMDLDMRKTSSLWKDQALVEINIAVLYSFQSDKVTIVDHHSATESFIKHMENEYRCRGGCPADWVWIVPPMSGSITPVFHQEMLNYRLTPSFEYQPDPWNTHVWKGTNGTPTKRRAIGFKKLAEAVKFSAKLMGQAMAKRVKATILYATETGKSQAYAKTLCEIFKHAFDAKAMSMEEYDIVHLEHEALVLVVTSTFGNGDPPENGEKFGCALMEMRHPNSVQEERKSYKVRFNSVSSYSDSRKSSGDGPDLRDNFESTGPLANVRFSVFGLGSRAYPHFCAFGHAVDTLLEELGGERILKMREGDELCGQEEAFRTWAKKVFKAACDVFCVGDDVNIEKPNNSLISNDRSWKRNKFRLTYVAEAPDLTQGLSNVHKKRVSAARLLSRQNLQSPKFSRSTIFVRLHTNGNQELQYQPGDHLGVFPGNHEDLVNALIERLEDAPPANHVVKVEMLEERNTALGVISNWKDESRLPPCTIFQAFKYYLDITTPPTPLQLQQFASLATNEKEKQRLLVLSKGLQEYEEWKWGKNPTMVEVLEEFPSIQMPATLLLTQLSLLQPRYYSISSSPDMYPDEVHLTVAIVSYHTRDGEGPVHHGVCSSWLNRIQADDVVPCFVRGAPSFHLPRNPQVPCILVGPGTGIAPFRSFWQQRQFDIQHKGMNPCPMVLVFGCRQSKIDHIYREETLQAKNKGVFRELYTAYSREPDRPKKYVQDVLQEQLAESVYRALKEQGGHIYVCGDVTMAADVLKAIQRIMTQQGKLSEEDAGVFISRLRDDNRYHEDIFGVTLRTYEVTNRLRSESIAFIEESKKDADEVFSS
smiles,measurement,setting,value
CC(=N)NCCCCC(C)(N)C(=O)O (racemic) [Example 2],IC50,[1],26.6 µM
same,IC50,[2],52.5 µM
same,IC50,[3],7.2 µM
same,IC50,[4],193 µM
"CC(=N)NCC[Se]CC(N)C(=O)O (racemic) [Example 3, Nε-iminoethyl-aminoethylselenocysteine]",IC50,[1],35.5 µM
same,IC50,[2],0.37 µM
same,IC50,[3],5 µM
same,IC50,[4],229 µM
CC(=N)NCCCCC(N)(CO)C(=O)O (racemic) [Example 4],inhibition at 10 µM,"[1]; @ 10 µM, read-out: hiNos Inh.",39%
same,inhibition at 10 µM,"[2]; @ 10 µM, read-out: Raw Cell Inh.",8.6%
same,inhibition at 10 µM,"[3]; @ 10 µM, read-out: miNOS Inh.",39%
same,inhibition at 10 µM,"[4]; @ 10 µM, read-out: rnNOS Inh.",8.6%
CC(=N)NCCCC(C)(N)C(=O)O (stereo not shown) [Example 1],IC50,[1],73.5 µM
same,IC50,[2],25 µM
same,IC50,[3],34.9 µM
same,IC50,[4],356 µM

# — patent EP0751930B1 (G.D. SEARLE & CO., priority 1994, dated 1995)
